Source: patent publication US10081606B2, “Heteroaryl compounds and uses thereof” (Celgene CAR LLC, priority 2010, dated 2018)

Columns and labels:
[1] = target: WT EGFR (A431 cells) (Homo sapiens (Human), UniProt P00533); experiment: EGFR signaling immunoblot (1 hr) in A431 cells; type: cell-based
Description: (§1) A431 human epidermoid carcinoma, H1975 human NSCLC and HCC827 human NSCLC adenocarcinoma cells were obtained from the American Type Culture Center (Manassas, Va.). A431 cells were grown in DMEM (Invitrogen, Carlsbad, Calif.) supplemented with 10% FBS (HyClone, South Logan, Utah) and 1% Penicillin-Streptomycin (P/S, Lonza, Walkersville, Md.).
(§2) All primary antibodies were obtained from Cell Signaling (Danvers, Mass.) and used at 1:1000. Secondary antibodies were used at 1:10,000. Goat anti-mouse IgG IRDye 800CW antibody was obtained from LiCor Biosciences (Lincoln, Nebr.) and goat anti-rabbit IgG Alexa Fluor 680 was obtained from Invitrogen.
(§3) Cells were grown in 12-well plates (Corning, Coring, N.Y.) to 90% confluence and then incubated in low-serum (0.1% FBS) media for 16-18 hr. […] A431 cells were then stimulated with 50 ng/ml EGF (Peprotech, Rocky Hill, N.J.) for 15 min. After treatment, cell monolayers were washed with cold PBS (Invitrogen) and immediately lysed by scrapping into 60 uL cold Cell Extraction Buffer (Invitrogen) supplemented with Complete Protease inhibitors (Roche, Indianapolis, Ind.) and PhosphoSTOP (Roche) phosphatase inhibitors.
(§4) Phospho-protein signals were quantitated using Odyssey Infrared Imaging (Li-Cor Biosciences).
Blots were normalized as indicated above. […]

[2] = target: EGFR L858R/T790M (H1975 cells) (Homo sapiens (Human), UniProt P00533, L858R/T790M); experiment: EGFR signaling immunoblot (1 hr) in H1975 cells; type: cell-based
Description: as §1, §2, §3, §4
Blots were normalized as indicated above. […] Normalized data was fitted using a sigmoidal curve analysis program (Graph Pad Prism version 5) with variable Hill slope to determine the EC50 values.

[3] = test system: A431 cells (WT EGFR); experiment: Cell proliferation (CellTiter Glo, 72 hr), A431; type: cell-based; settings: Homo sapiens, A-431; A431 cells, 72 hr; read-out: WT EGFR GI50
Description: as §1
(§5) Growth inhibition (GI50) values were determined by Graph Pad Prism.

[4] = test system: H1975 cells (EGFR L858R/T790M); experiment: Cell proliferation (CellTiter Glo, 72 hr), H1975; type: cell-based, human
Description: as §1, §5

[5] = test system: HCC827 cells (EGFR delE746-A750); experiment: Cell proliferation (CellTiter Glo, 72 hr), HCC827; type: cell-based, human
Description: as §1, §5

[6] = target: EGFR T790M/L858R (Homo sapiens (Human), UniProt P00533, L858R/T790M); settings: MS analysis

Compound: C=CC(=O)Nc1cccc(Oc2nc(Nc3ccc(OC)c(OC)c3OC)ncc2Cl)c1 [Compound I-7, N-(3-(5-chloro-2-(2,3,4-trimethoxyphenylamino)pyrimidin-4-yloxy)phenyl)acrylamide]
- WT-EGFR sparing in A431 cells (pEGFR, pS6) [1]: completely WT-EGFR sparing
- inhibition of pEGFR and downstream S6 Ribosomal protein in H1975 cells ([2]; H1975 vs A431, FIG. 1 and 2): mutant selective
- Ratio WT/mutant ([2]; signaling EC50, WT (A431) vs H1975): >50
- GI50 [3]: > 1000 nM
- GI50 ([4]; Homo sapiens, NCI-H1975, H1975 cells, 72 hr, read-out: H1975 GI50): 100 to 500 nM
- Ratio WT/mutant ([4]; proliferation GI50, WT (A431) vs H1975): >10
- GI50 ([5]; Homo sapiens, HCC827 cells, 72 hr, read-out: HCC827 GI50): 100 to 500 nM
- Ratio WT/mutant ([5]; proliferation GI50, WT (A431) vs HCC827): >15
- covalent modification of EGFR T790M/L858R [6]: covalently modify
